Square brackets hold non-standard residues; d marks the D form. Ends that are not written are not given here. Orn = NCCC[C@H](N)C(=O)O
Columns and labels:
Format in all cases: cell-based
[1] = tested on: S. epidermis; experiment: killing of bacteria at fixed peptide concentration, S. epidermis (Example 12); conditions: peptide 25 μg/ml
Method: (§1) In this example, the peptides according to the invention were used to study the effect on the killing of different bacteria.
(§2) The peptides were used at a concentration of 25 μg/ml.

[2] = tested on: K. pneumoniae; experiment: killing of bacteria at fixed peptide concentration, K. pneumoniae (Example 12); conditions: peptide 25 μg/ml
Method: as §1, §2

[3] = tested on: E. coli; experiment: MMC99% of modified peptides, E. coli (Example 26); conditions: BHI diluted 1/100, pH approximately 6.7-6.9 (Table 22)
Method: (§3) In the examples, the minimal microbicidal concentrations (MMC) and minimal inhibitory concentrations (MIC) were determined as follows, unless otherwise specified in the examples. Bacterial or fungal strains were cultured in BHI medium over night at 37° C. A volume of the culture was transferred to a new tube with BHI and incubated for two more hours. Thereafter the cells were spun down and the pellet was suspended in BHI medium diluted 1/100 (1% BHI). The concentration of bacterial or fungal cells was spectrophotometrically determined at 650 nm. The microbial concentrations were also determined by viable counts. Peptides serially diluted in 1% BHI by twofold or tenfold steps were added in triplicate to the wells of a microtiterplate (200 μl per well). The bacterial or fungal cell solutions were added in 10 μl volumes to give a final concentration of approximately 1-5×10^5 cells per ml in the well. The microplate was incubated at 37° C. in a humid chamber for two hours. Thereafter 5 μl was taken from each well and added as a drop onto a blood agar plate and incubated over night at 37° C. The microplate was incubated for another 20 hours at 37° C. and thereafter analysed spectrophotometrically at 650 nm in a microplate reader (Emax, Molecular Devices, USA). The concentration of peptide causing a 99% reduction of the inoculum after 2 hours of incubation was defined as the MMC99%. The MIC value was defined as the concentration giving no increase in the absorbance value above the background level after 20 hours of incubation.
(§4) In this example the fungicidal, and bactericidal effects of the different peptides obtained in example 22 were studied. C. albicans, E. coli and S. aureus, respectively, were incubated in BHI medium diluted 1/100, with a pH of approximately 6.7-6.9. The concentration of each peptide needed to kill 99% of the microorganisms (MMC99%) was determined.

[4] = tested on: C. albicans; experiment: MMC99% of modified peptides, C. albicans (Example 26); conditions: BHI diluted 1/100, pH approximately 6.7-6.9 (Table 22)
Method: as §3, §4

[5] = tested on: C. albicans; experiment: fungicidal activity MMC99%, C. albicans (Example 27); conditions: BHI diluted 1/100 (Table 23)
Method: as §3
(§5) In this example the fungicidal activity of three of the peptides according to the invention was studied, and tested against three different fungi. The fungi were incubated in BHI medium diluted 1/100. The concentration of each peptide needed to kill 99% of the fungi (MMC99%) was determined.

[6] = tested on: C. albicans; experiment: microbicidal activity MMC99%, C. albicans (Example 28); conditions: C. albicans (Table 24)
Method: as §3
(§6) In this example the microbicidal activity of eight of the peptides according to the invention was studied, and tested against E. coli O6K5 and C. albicans.
(§7) The concentration of each peptide needed to kill 99% of the microorganisms (MMC99%) was determined.

[7] = tested on: E. coli O6K5; experiment: microbicidal activity MMC99%, E. coli O6K5 (Example 28); conditions: E. coli O6K5 (Table 24)
Method: as §3, §6, §7

[8] = tested on: S. aureus; experiment: MMC99% of modified peptides, S. aureus (Example 25); conditions: BHI diluted 1/100, pH approximately 6.7-6.9 (Table 21)
Method: as §3
as §4, with “examples 18-21” for “example 22”

[9] = tested on: C. albicans (ATCC64549)
How it was run: (§8)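 Microbes at ~1–5×10^5 cells/mL in 1% BHI exposed to peptides (1, 10, 25, 100 µg/ml) at 37 °C. MMC99%: concentration killing 99% of inoculum after 2 h, by spotting onto blood agar. MIC: no absorbance rise at 650 nm above background after a further 20 h.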

[10] = tested on: E. coli O6
How it was run: as §8

[11] = tested on: S. aureus; experiment: killing of bacteria at fixed peptide concentration, S. aureus (Example 12); conditions: peptide 25 μg/ml
Method: as §1, §2

[12] = tested on: C. glabrata; experiment: fungicidal activity MMC99%, C. glabrata (Example 27); conditions: BHI diluted 1/100 (Table 23)
Method: as §3, §5

[13] = tested on: P. aeruginosa; experiment: killing of bacteria at fixed peptide concentration, P. aeruginosa (Example 12); conditions: peptide 25 μg/ml
Method: as §1, §2

[14] = tested on: E. coli; experiment: MMC99% of modified peptides, E. coli (Example 25); conditions: BHI diluted 1/100, pH approximately 6.7-6.9 (Table 21)
Method: as §3
as §4, with “examples 18-21” for “example 22”

[15] = tested on: S. aureus; experiment: MMC99% of modified peptides, S. aureus (Example 26); conditions: BHI diluted 1/100, pH approximately 6.7-6.9 (Table 22)
Method: as §3, §4

[16] = tested on: E. faecalis; experiment: killing of bacteria at fixed peptide concentration, E. faecalis (Example 12); conditions: peptide 25 μg/ml
Method: as §1, §2

[17] = tested on: C. albicans; experiment: MMC99% of modified peptides, C. albicans (Example 25); conditions: BHI diluted 1/100, pH approximately 6.7-6.9 (Table 21)
Method: as §3
as §4, with “examples 18-21” for “example 22”

[18] = tested on: C. albicans yeast cells (ATCC64549); experiment: killing and growth inhibition of C. albicans at pH 4.5 (Example 11); design: key to C. albicans inhibition (OD650): + = no increase in OD650 is seen; − = OD650 continues to increase; conditions: pH 4.5, 1% BHI, 25 μg/ml of the peptide
How it was run: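 Yeast cells exposed 2 h at pH 4.5 to 25 µg/ml peptide in 1% BHI, then plated on blood agar. Killing scored as 100% and 99% fungicidal effect; growth inhibition read as no OD650 increase after a further 18 h.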

[19] = tested on: C. neoformans; experiment: fungicidal activity MMC99%, C. neoformans (Example 27); conditions: BHI diluted 1/100 (Table 23)
Method: as §3, with “The bacterial or fungal cell solutions were added in 10 μl volumes to give a final concentration of approximately 1-5×10^5 cells per ml in the well. The microplate was incubated at 37° C. in a humid chamber for two hours. Thereafter 5 μl was taken from each well and added as a drop onto a blood agar plate and incubated over night at 37° C.” left out, “The concentration of peptide causing a 99% reduction of the inoculum after 2 hours of incubation was defined as the MMC99%.” left out
In this example the fungicidal activity of three of the peptides according to the invention was studied, and tested against three different fungi. […] The concentration of each peptide needed to kill 99% of the fungi (MMC99%) was determined.

CFQWQRNMRKVR [Peptide 46, C-F-Q-W-Q-R-N-M-R-K-V-R]
killing of bacteria: S. epidermis [1]: + (+ = 99% of the bacteria are killed)
killing of bacteria: K. pneumoniae [2]: + (+ = 99% of the bacteria are killed)
MMC99% [3]: 6
MMC99% [4]: 12
MMC99% [5]: 12.5
MMC99% [6]: 10
MMC99% [7]: 10
MMC99% [8]: 7
MIC ([9]; ATCC64549): 10 µg/mL
MMC99% ([9]; C. albicans, tested at 1, 10, 25 and 100 μg/ml of peptide): 10 µg/mL
MMC99% ([10]; E. coli O6, tested at 1, 10, 25 and 100 μg/ml of peptide): 10 µg/mL
MIC ([10]; O6): 10 µg/mL
killing of bacteria: S. aureus [11]: + (+ = 99% of the bacteria are killed)
MMC99% [12]: 50
killing of bacteria: P. aeruginosa [13]: + (+ = 99% of the bacteria are killed)
MMC99% [14]: 12
MMC99% [15]: 12
killing of bacteria: E. faecalis [16]: + (+ = 99% of the bacteria are killed)
MMC99% [17]: 12
C. albicans inhibition (OD650) ([18]; OD650 after an additional 18 hours): +
C. albicans killing: 99% ([18]; 2 hours): + (+ = 100/99% of the bacteria are killed)
C. albicans killing: 100% ([18]; 2 hours): + (+ = 100/99% of the bacteria are killed)

C-F-Q-W-Orn-R-N-M-R-K-V-R (CFQW[Orn]RNMRKVR) [SEQ. ID. NO. 87]
MMC99% [5]: 6.3
MMC99% [6]: 5
MMC99% [7]: 5
MMC99% [8]: ≦3.5
MMC99% [12]: >50
MMC99% [14]: 6
MMC99% [19]: 3.1
MMC99% [17]: 3

— patent US7803757B2, “Peptides based on the sequence of human lactoferrin and their use” (PharmaSurgics in Sweden AB, priority 1998, dated 2010)
